Source: US20080220416A1, “Compositions for Inhibiting Cell Growth and Inducing Apoptosis in Cancer Cells and Methods of Use Thereof” (THE BOARD OF TRUSTEES OF THE UNIVERSITY OF ILLINOI, priority 2004, published 2008)
Square brackets hold non-standard residues; d marks the D form. Peptide text beside a SMILES is read from it. * marks the point of attachment. Nle = CCCC[C@H](N)C(=O)O; Cbz = O=C(OCc1ccccc1)*

Assays:
Format in all cases: cell-based, human
Notch-1 = test: Notch Western blot in MDA-MB231 cells
Method: Notch silencing was confirmed by Western blot using commercial goat polyclonal antibodies from Santa Cruz Biotechnology to Notch-1 (C-20, Cat# sc-6014 S) and Notch-4 (C-19, Cat# sc-8644). Total cell lysates were prepared as follows: cells grown on 6 cm dishes were scraped in lysis buffer containing 1×PBS, 1% Nonidet P40, 0.5% deoxycholate, 0.1% SDS, freshly added aprotinin (45 μg/ml), phenylmethylsulfonyl fluoride (10 μg/ml), and sodium orthovanadate (10 μM). Lysates were sonicated 4 times for 5 seconds each, followed by 30 minutes incubation on ice. Lysates were centrifuged at 10,000 g for 20 minutes at 4° C. Supernatants were used as total cell lysates. Nuclear extracts were prepared as follows: 10,000,000 cells were pelleted, washed, and quickly frozen in a dry ice bath. Pellets were thawed by adding 100 μl of buffer 1 (10 mM HEPES, pH 7.9, 10 mM KCl, 1.5 mM MgCl2, 1 mM DTT). Nuclei were pelleted and lysed in 15 μl Buffer 2 (20 mM HEPES, pH7.9, 0.4 M NaCl, 1.5 mM MgCl2, 25% glycerol, 0.2 mM EDTA, 1 mM DTT, and 0.5 mM PMSF). Lysates were diluted in 50-70 μl Buffer 3 (20 mM HEPES, pH 7.9, 50 mM KCl, 20% glycerol, 0.2 mM EDTA, 1 mM DTT, 0.5 mM PMSF). Protein concentrations were estimated using the BCA protein assay (Pierce). Supernatants were boiled in reducing SDS sample buffer (Novex). Twenty μg protein per lane were run on a 3-8% Tris acetate gel (Invitrogen) in Tris Acetate Reducing Running Buffer (Novex). Protein bands were transferred onto PVDF membranes (BioRad) using transfer buffer (Novex). Membranes were then blocked overnight at 4° C. in 2% blocking solution in TBS (Roche). Primary antibodies were diluted in 2% Boehringer blocking solution (total volume 5 ml). Membranes were incubated for one hour at room temperature with shaking, then washed 6 times for 10 minutes each in TBS wash buffer. Membranes were incubated in secondary antibody in 2% of blocking solution for 30 minutes, then washed 6 times for 10 minutes each at RT in wash buffer. Bands were detected with chemiluminescent reagent (Roche) according to the manufacturer's directions. […]

MDA-MB231 cells = test: Cell cycle distribution of MDA-MB231 cells by flow cytometry
Method: Cell cycle analysis was performed to further study the effects of inhibition of Notch signaling in breast cancer cells. MDA-MB231 cells were treated overnight with 0-10 μM z-Leu-Leu-Nle-CHO prior to cell cycle distribution analysis by flow cytometry. Alternatively, MDA-MB231 cells were transfected with Notch-1, Notch-4 or control siRNA as described above in Example 15. For cell cycle distribution analysis by flow cytometry, z-Leu-Leu-Nle-CHO- or siRNA-treated cells (10^6) were pelleted and washed twice in PBS. Cells were then fixed in 80% methanol and stored at −20° C. until use. Fixed cells were pelleted and washed twice in PBS, and resuspended in 50 μl PI:PBS solution (50 μg/ml PI). After RNase A (100 μg/ml) treatment at 37° C. for an hour, cells were analyzed by flow cytometry using a FACScalibur instrument.

cyclins A and B1 = test: Cyclin expression in MDA-MB231 cells (ribonuclease protection assay, Western blot)
Method: To explore the effects on Notch-1 siRNA on the expression of cyclins, the main regulators of cell cycle progression, ribonuclease protection assays and Western blots on Notch-1 siRNA-treated cells were performed. Transfection of the MBA-MD231 cells with Notch-1 siRNA (5′-AAGTGTCTGAGGCCAGCAAGA-3′) (SEQ ID NO. 1) or control siRNA (5′-AACAGTCGCGTTTGCGACTGG-3′) (SEQ ID NO: 5), was performed as described above. Ribonuclease protection assays were performed by first preparing total RNA using a RNeasy Mini kit (QIAGEN Cat. #74104) according to the manufacturer's instructions. The multi-probe template set hCYC-1 (containing DNA templates for cyclin A, cyclin B, cyclin C, cyclin D1, cyclin D2, cyclin D3, cyclin A1 L32 and GAPDH) was purchased from BD Biosciences (Cat. # 556189). The DNA template was used to synthesize a [^32P]UTP (10 mCi/ml, Amersham Bioscience) labelled probe in the presence of a GACU pool using a […] RNA-polymerase (BD Bioscience RiboQuant RPA starter package, Cat. # 556144). Hybridization with 20 μg of each target RNA was performed at 56° C. overnight, followed by digestion with RNAse A and T1 according to the BD Bioscience standard protocol. After proteinase K treatment, samples were precipitated, loaded on a 4.75% acrylamide-urea gel, and run at 55 W with 0.5×TBE. Gels were dried in the gel dryer under vacuum for 2 h at 90° C. Then gels were exposed on Kodak film (Eastman Kodak, Rochester, N.Y.) with intensifying screens and developed at −70° C. Western blots were performed as described above. […] Western blot data confirmed these findings. […] CDK1 levels were only modestly affected. Cyclin A/cdk2 phosphorylates E2F-1/DP complexes at the end of S-phase, inactivating them. This prevents a re-initiation of DNA replication and assures that the genome is replicated only once at each S phase. Failure of cyclin A/cdk2 to inactivate E2F results in inappropriately persistent E2F activity, which may lead to apoptosis. E2F-1 is known to upregulate its own transcription. […]

Compound | expression of Notch-1 and Notch-4 (Notch-1; MDA-MB231 / HMEC, data not shown) | cell cycle distribution (MDA-MB231 cells; siRNA transfection) | cyclin B1 protein (Western blot) (cyclins A and B1) | cyclin mRNA expression (ribonuclease protection assay) (cyclins A and B1) | N^IC and N^TM levels (Notch-1; MDA-MB231, 0.5, 1 or 2 μM, 24 h, virtually complete at 2 μM) | cell cycle distribution (MDA-MB231 cells; 0-10 μM overnight) | cyclin A and cyclin B protein (Western blot) (cyclins A and B1; 0.5 or 1 μM, 24 h)
5′-AAGTGTCTGAGGCCAGCAAGA-3′ [Notch-1 siRNA] | strongly inhibited the expression of both Notch-1 and -4 | accumulation of cells in G2/M was maximal at 24 hours | striking decrease in the steady state levels of cyclin B1 at 48 hours | decreases the expression of mRNAs for cyclins B1 and A, but not C, D, or A1 | – | – | –
CCCC[C@@H](C=O)NC(=O)[C@H](CC(C)C)NC(=O)[C@H](CC(C)C)NC(=O)OCc1ccccc1 [z-Leu-Leu-Nle-CHO, N-benzyloxycarbonyl-leucyl-leucyl-norleucinal] (Cbz-Leu-Leu-[Nle]-aldehyde) | – | – | – | – | dose-dependent decrease in N^IC and relative accumulation of N^TM | accumulation of cells in the G2/M stage of the cell cycle | dramatically reduced the levels of cyclin A protein at 0.5 μM, whereas cyclin B was decreased at 1 μM
